In patent US20060141486A1, “Porous substrates and arrays comprising the same” (priority 2004, published 2006):
One block for each compound: values may come before it.

What was measured:
Experiment in all cases: GPCR array binding assay on flow-through microplate with GAPS porous substrate
[1] = target: T1, human muscarinic receptor subtype 2 (M2) (Homo sapiens, UniProt P08172)
T1 sequence (P08172 1-466): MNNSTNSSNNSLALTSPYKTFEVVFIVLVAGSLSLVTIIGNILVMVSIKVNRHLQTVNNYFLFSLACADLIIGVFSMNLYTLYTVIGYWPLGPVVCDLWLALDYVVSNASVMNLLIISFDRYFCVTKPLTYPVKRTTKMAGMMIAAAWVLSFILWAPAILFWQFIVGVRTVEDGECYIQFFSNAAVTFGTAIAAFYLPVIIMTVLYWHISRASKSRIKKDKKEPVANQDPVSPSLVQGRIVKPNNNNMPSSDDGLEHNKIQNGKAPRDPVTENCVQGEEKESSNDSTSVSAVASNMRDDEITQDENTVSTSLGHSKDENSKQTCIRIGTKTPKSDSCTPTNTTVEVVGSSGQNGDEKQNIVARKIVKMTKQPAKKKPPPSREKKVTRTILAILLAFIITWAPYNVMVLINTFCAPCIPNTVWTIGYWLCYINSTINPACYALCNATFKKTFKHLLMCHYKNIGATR
Method: (§1) 96 patches of silica-based porous substrate (GAPS™, Corning Inc.) were screen printed onto a 1737 glass support plate, and sintered at 695° C. The glass support was pre-fabricated by sand blasting to generate 192 microchannels. Under each porous patch, there are two microchannels which provide access to the porous patch from the opposite side of the glass support. Human muscarinic receptor subtype 1 (M1), delta opioid receptor subtype 2 (delta2), and muscarinic receptor subtype 2 (M2) were printed onto the GAPS™-porous substrate with a configuration such that each receptor was aligned in one column with four replicates (i.e., columns 1, 2 and 3 for M1, delta2 and M2 receptors, respectively; see FIG. 4A). […] After one hour incubation, a vacuum force was applied to remove the assay solution and the sequential washing solution before the array was finally being dried.

[2] = target: T2, human muscarinic receptor subtype 1 (M1) (Homo sapiens, UniProt P11229)
T2 sequence (P11229 1-460): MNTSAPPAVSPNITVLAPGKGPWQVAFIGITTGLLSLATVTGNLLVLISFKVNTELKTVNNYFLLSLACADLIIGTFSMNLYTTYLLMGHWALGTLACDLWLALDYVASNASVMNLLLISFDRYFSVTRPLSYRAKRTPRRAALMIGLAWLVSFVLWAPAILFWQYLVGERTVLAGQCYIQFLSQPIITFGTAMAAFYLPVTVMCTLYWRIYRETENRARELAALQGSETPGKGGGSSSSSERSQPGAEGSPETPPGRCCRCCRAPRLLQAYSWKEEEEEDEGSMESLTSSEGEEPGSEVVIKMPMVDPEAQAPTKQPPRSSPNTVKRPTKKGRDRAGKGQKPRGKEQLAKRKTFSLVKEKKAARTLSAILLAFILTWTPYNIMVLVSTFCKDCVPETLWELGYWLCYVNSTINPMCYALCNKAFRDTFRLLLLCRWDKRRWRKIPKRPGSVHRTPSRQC
Method: as §1

[3] = target: human delta opioid receptor subtype 2 (delta2) (Homo sapiens, UniProt P41143); details: 4 nM Cy5-naltrexone in cocktail of labeled ligands, one hour incubation, FIG. 4A
human delta opioid receptor subtype 2 (delta2), sequence (P41143 whole entry): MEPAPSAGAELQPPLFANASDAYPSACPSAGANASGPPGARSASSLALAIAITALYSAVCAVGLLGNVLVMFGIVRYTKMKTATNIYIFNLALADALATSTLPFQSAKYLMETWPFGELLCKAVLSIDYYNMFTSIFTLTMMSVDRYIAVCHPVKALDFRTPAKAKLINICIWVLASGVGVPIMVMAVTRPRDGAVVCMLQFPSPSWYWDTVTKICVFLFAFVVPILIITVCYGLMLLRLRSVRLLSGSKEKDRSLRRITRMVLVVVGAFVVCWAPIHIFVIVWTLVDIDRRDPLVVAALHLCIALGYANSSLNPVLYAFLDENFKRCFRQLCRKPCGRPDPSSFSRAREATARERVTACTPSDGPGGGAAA
Method: as §1

[4] = unlabeled telenzepine 2 μM (with naltrexone 4 μM), FIG. 4B
[5] = 2 nM Cy3B-telenzepine in cocktail of labeled ligands, one hour incubation, FIG. 4A

inhibition of Cy3B-telenzepine binding to M2 receptor by unlabeled compound [1, 4]: inhibited
inhibition of Cy3B-telenzepine binding to M1 receptor by unlabeled compound [2, 4]: inhibited
Compound: Cc1scc2c1N(C(=O)CN1CCN(C)CC1)c1ccccc1NC2=O [telenzepine]

Compound: Cy3B-telenzepine
binding of labeled ligand to M2 receptor microspots (fluorescence) [1, 5]: Weak binding signals
binding of labeled ligand to M1 receptor microspots (fluorescence) [2, 5]: strong binding

Compound: Cy5-naltrexone
binding of labeled ligand to delta2 receptor microspots (fluorescence) [3]: strong binding
